US11154593B2, “CNP prodrugs with large carrier moieties” (ASCENDIS PHARMA GROWTH DISORDERS A/S, priority 2016, dated 2021)
Read-outs that look alike come from different tables or passages of the source.

How the values were obtained:
[1] = target: Neutral Endopeptidase (NEP) (Homo sapiens, UniProt P08473); assay: in vitro; conditions: pH 7.4
Experimental: (§1) In order to determine the in vitro stability of various CNP variants including different peptide chain lengths and PEGylations using different PEGylation sites and PEG molecules in the presence of Neutral Endopeptidase (NEP), a NEP digest assay was established. This assay monitored the decrease of the non-digested CNP variant (normalized with the internal standard PFP) over time in reference to the t0-time point.
(§2) In detail, recombinant human NEP (2.5 μg/mL final concentration) and the standard pentafluorophenol (PFP; 40 μg/mL final concentration) were added to the CNP variant (100 μg CNP equivalents/mL) in digest buffer (50 mM Tris-HCl, pH 7.4, 10 mM NaCl). The solution was incubated at 37° C. and 500 rpm for up to 4 days. Samples were taken at different time intervals. The reaction was stopped by a combined reduction and heat denaturation adding TCEP (tris(2-carboxyethyl)phosphine; 25 mM final concentration) and incubating the mixture at 95° C., 500 rpm for 5 minutes. The resulting reaction products were assigned using HPLC-MS. The half life of each CNP variant was calculated via the ratio change in the HPLC-UV peak areas of CNP and PFP over time.

[2] = Pharmacokinetic profile of CNP-38 after subcutaneous single-dose administration to cynomolgus monkeys; type: in vivo
Experimental: Blood samples were collected at 5, 10, 15, 30, 45 min and 1, 2, 4, 8 hours upon dose.
Method: Plasma levels of CNP were analysed using a commercially available competitive radioimmuno-assay (RK-012-03, Phoenix Pharmaceuticals, CA). The assay was applied essentially as described by the manufacturer. The assay is based on competitive binding between 1251-labelled CNP (supplied in the kit) and unlabeled CNP (from study sample or calibrants) to an anti-CNP antibody. […] By measuring the amount of 1251-labelled CNP bound as a function of the concentration of peptide, it is possible to construct a calibration curve from which the concentration of peptide in the sample can be determined.
A few changes to the supplied assay protocol were made. These changes included using in-house CNP calibrant and QC samples to secure consistency between assay runs. […] Due to matrix effects in monkey plasma, the minimal required dilution was set at 1:10, yielding an assay range of 150-1080 μg/mL CNP.

[3] = Evaluation of cardiovascular effects in the conscious telemetered mouse (subcutaneous administration); type: in vivo; conditions: for MAP during the remaining ten time points versus vehicle / change in MAP at the 5, 15 and 30 min post dose time points compared to predose / MAP (mean ± SD): 800 μg CNP-38 (eq)/kg sc; for MAP during the remaining ten time points versus vehicle: 1 to 48 hours postdose; for change in MAP at the 5, 15 and 30 min post dose time points compared to predose: CNP-38: 3 of 4 animals
Experimental: Male Crl:CDl(ICR) mice (age range 8-13 weeks and body weight range 27.3-35.6 g at start of dosing) were surgically implanted with a TA11PA-C10 telemetry transmitter (Data Sciences International (DSI)) in the carotid artery. The body of the transmitter was placed subcutaneously in the lateral flank of the mouse. The mice were dosed subcutaneously in a latin square crossover design with at least 72 hours between dosing occasions. […] At least four mice were included at each dose level. Blood pressure (systolic (SAP), diastolic (DAP) and mean (MAP) and heart rate (HR, derived from blood pressure), were recorded using a digital data capture system linked with a DSI™ Ponemah data acquisition and analysis system. The capture system allowed recording of the cardiovascular parameters whilst the mice were in individual cages. On the day of each test session the animals were weighed and a predose recording was performed for at least 60 min prior to dosing. Each mouse was returned to the home cage and the cardiovascular parameters were recorded for approximately 48 hours postdose. Blood pressure and HR were reported at the following time points: -30, -20, -10, 5, 15 and 30 min postdose and 1, 2, 6, 12, 18, 24, 30, 36, 42 and 48 hours postdose. Each time point was presented as the average value of five minute's recording prior to the time point. The monitoring period was selected to cover exposure to the test items both prior to and after Tmax.

[4] = doses up to 15 μg/kg, healthy volunteers; cited from earlier work
[5] = in vivo; cited from earlier work
[6] = target: recombinant human NEP (Homo sapiens, UniProt P08473); assay: Digest of CNP variants by Neutral Endopeptidase in vitro (NEP digest assay); conditions: pH 7.4
Chain of recombinant human NEP (P08473 whole entry): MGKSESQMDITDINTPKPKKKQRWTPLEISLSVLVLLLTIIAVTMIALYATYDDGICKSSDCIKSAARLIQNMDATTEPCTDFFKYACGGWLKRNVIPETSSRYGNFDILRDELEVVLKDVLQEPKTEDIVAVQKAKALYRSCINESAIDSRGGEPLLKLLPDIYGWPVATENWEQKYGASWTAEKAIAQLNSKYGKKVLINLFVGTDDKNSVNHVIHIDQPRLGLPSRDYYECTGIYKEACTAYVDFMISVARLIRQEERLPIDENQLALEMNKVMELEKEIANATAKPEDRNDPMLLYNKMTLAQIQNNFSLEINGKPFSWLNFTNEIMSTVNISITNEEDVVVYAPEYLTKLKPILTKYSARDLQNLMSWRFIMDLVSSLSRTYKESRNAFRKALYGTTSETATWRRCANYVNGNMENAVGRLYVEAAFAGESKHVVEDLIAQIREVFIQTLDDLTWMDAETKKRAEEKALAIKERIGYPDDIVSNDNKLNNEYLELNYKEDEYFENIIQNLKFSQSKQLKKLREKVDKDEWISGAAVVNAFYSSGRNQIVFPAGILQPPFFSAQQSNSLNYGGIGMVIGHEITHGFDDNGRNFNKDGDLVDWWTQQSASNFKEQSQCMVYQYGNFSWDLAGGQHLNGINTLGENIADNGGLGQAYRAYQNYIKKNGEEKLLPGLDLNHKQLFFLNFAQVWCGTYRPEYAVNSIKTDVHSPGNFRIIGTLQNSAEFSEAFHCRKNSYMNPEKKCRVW
Experimental: as §1, §2

[7] = target: T1, NPR-B (Mus musculus, UniProt Q6VVW5); assay: Functional cGMP stimulation in NIH-3T3 cells with CNP variants; type: cell-based, Murine; conditions: cGMP TR-FRET, 30 min, 37° C.
T1 construct: These cells express endogenously NPR-B on the cell surface; endogenous in cells; host or cells: NIH-3T3 (murine embryo fibroblasts)
T1 sequence (Q6VVW5 17-1047): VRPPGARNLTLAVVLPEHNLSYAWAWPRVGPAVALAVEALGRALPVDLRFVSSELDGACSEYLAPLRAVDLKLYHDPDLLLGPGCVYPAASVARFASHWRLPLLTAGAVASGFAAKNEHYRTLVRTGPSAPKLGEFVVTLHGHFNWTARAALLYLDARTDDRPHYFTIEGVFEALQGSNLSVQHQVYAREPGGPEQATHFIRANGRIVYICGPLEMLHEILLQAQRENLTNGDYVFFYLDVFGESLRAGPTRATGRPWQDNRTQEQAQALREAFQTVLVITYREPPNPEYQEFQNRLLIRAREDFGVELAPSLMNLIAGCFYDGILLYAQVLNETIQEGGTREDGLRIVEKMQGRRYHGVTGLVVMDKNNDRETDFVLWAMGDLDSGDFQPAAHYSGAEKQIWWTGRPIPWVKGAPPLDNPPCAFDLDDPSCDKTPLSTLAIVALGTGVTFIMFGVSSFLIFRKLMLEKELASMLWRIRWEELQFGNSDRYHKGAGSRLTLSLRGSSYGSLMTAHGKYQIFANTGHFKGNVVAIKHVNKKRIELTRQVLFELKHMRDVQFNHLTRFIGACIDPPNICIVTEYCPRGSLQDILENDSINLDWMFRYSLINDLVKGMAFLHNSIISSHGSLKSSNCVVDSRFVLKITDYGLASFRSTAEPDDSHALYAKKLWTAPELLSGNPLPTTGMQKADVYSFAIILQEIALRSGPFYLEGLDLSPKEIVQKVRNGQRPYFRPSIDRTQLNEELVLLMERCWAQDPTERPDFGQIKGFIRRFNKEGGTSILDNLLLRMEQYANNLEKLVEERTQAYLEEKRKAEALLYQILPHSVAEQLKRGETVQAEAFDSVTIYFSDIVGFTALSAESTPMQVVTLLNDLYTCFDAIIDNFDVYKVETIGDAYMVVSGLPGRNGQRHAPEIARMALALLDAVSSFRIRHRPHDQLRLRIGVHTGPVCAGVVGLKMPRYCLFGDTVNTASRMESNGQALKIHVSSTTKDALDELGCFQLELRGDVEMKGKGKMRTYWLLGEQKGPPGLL
Experimental: Functional activity of CNP variants were determined in a cell-based assay with NIH-3T3 cells (Murine Embryo Fibroblast cell line). These cells express endogenously NPR-B on the cell surface. Stimulation of NPR-B with CNP leads to intracellular production of the second messenger cGMP which is detected with a commercially available cGMP assay. NIH-3T3 cells were routinely cultured in DMEM F-12 medium with 5% FBS and 5 mM glutamine at 37° C. and 5% CO2. For each assay, 50,000 cells were resuspended in stimulation buffer (Dulbecco's PBS with IBMX) and incubated with the CNP variants in different concentrations. CNP (dilutions were made in PBS with 0.2% BSA). After incubation of 30 min at 37° C. and 5% CO2, the cells were lyzed and cGMP levels were determined with a commercially available cGMP TR-FRET assay (Cisbio, cGMP kit, Cat. No. 62GM2PEB). PEGylated CNP variants were always characterized in comparison with the non-PEGylated version in the same experiment batch. If possible, evaluation of the residual activity was done via the EC50- parameter of the resulting dose-response curve (restricted model with common slope).
After 7 d, released CNP-38 was isolated by RP-HPLC and analyzed for bioactivity as described in Example 22.

[8] = target: T2, NPR-C (Homo sapiens, UniProt P17342); assay: NPR-C affinity assay (competition with fluorescein-labelled CNP 27d, flow cytometry); conditions: NPR-C expressing Hek293 cell line
T2 sequence (P17342 27-541): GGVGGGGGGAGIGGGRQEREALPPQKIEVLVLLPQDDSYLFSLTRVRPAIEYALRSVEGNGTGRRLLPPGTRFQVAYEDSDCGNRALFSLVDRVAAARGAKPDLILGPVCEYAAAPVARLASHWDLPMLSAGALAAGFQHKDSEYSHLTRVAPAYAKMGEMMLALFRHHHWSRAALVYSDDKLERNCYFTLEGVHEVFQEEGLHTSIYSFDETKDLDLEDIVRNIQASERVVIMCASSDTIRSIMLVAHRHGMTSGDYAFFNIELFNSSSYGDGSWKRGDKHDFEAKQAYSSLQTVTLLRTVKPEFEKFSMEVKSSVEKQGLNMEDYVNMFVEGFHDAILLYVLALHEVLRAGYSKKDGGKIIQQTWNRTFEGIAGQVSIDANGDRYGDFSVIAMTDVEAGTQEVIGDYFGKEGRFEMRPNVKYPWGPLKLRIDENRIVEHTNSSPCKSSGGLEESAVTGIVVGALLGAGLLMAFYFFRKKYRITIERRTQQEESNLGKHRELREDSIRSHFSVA

[9] = male, cynomolgus monkey, in vivo, sc, 40 ug/kg

Chain of Neutral Endopeptidase (NEP) (P08473 whole entry): as the sequence (P08473 whole entry) above

For `CC[C@H](C)[C@@H]1NC(=O)[C@H](CCCNC(=N)N)NC(=O)[C@H](CC(=O)O)NC(=O)[C@H](CC(C)C)NC(=O)[C@H](CCCCN)NC(=O)[C@H](CC(C)C)NC(=O)CNC(=O)[C@H](Cc2ccccc2)NC(=O)[C@@H](NC(=O)CNC(=O)[C@H](CCCCN)NC(=O)[C@H](CO)NC(=O)[C@H](CC(C)C)NC(=O)CNC(=O)[C@H](CCCCN)NC(=O)[C@H](CCCCN)NC(=O)[C@H](CC(N)=O)NC(=O)[C@H](C)NC(=O)CNC(=O)[C@H](CCCCN)NC(=O)[C@H](Cc2ccc(O)cc2)NC(=O)[C@H](CCCCN)NC(=O)[C@H](CCCNC(=N)N)NC(=O)[C@H](C)NC(=O)[C@H](CC(N)=O)NC(=O)[C@@H]2CCCN2C(=O)[C@H](Cc2c[nH]cn2)NC(=O)[C@H](CCC(=O)O)NC(=O)[C@H](CCC(N)=O)NC(=O)[C@@H](N)CC(C)C)CSSC[C@@H](C(=O)O)NC(=O)CNC(=O)[C@H](CC(C)C)NC(=O)CNC(=O)[C@H](CO)NC(=O)[C@H](CCSC)NC(=O)[C@H](CO)NC(=O)CNC1=O` [CNP-38, reference compound], the half-life at 100 μg CNP equivalents/mL [1] was 12.1 h, the AUC(0-t) [2, 9] was 2.5 ng·h/mL and the Cmax [2, 9] was 7.9 ng/mL. For the same compound, the Tmax [2, 9] was 0.167 h, the half-life ([2]; male, cynomolgus monkey, in vivo, sc, 40 ug/kg, Half-life (mean)) was roughly 7 min and the tolerability ([2]; single s.c. 40 μg/kg) was “well tolerated”. For the same compound, the “MAP during the remaining ten time points versus vehicle” value [3] was “no difference in MAP”, the “change in MAP at the 5, 15 and 30 min post dose time points compared to predose” value [3] was “significant decrease in MAP” and the “MAP (mean ± SD)” value ([3]; 5 min post dose) was 102.0 ± 7.5 mmHg. For the same compound, the “MAP (mean ± SD)” value ([3]; 15 min post dose) was 89.5 ± 29.4 mmHg, the “MAP (mean ± SD)” value ([3]; 30 min post dose) was 99.5 ± 25.2 mmHg and the “MAP (mean ± SD)” value ([3]; predose) was 106.8 ± 13.4 mmHg.

In the case of BMN-111, the blood pressure effect [4] is listed as “mild hypotension” and the half-life [5] is listed as 0.333 h.

With “Permanent Lys16 CNP-34 PEG 5 kDa Conjugate [Conjugate 17e]” the “half life norm.” value [6] was 54.23 h.

In the case of “Permanent Lys22 CNP-34 PEG 5 kDa Conjugate [Conjugate 18e]”, the “half life norm.” value [6] is reported as 38.87 h.

With “Permanent Lys26 CNP-38 PEG4×10 kDa Conjugate [Conjugate 12g]” the “half life norm. [h]” value [6] was “Almost no proteolysis”.

For “Permanent Lys26 CNP-38 PEG 5 kDa Conjugate [Conjugate 19e]”, the “EC50 compound/EC50 CNP-38 (residual NPR-B activity)” value [7] was greater than 100, the “IC50 of PEGylated CNP-38/IC50 CNP-38 (residual NPR-C affinity)” value [8] was 1.1 and the “half life norm.” value [6] was 62.76 h.

For “Permanent N-Terminal CNP-34 PEG 5 kDa Conjugate [Conjugate 14e]”, the “half life norm. [h]” value [6] was “Almost no proteolysis”.

In the case of “Permanent N-Terminal CNP-38 PEG 5 kDa Conjugate [Conjugate 15e]”, the “EC50 compound/EC50 CNP-38 (residual NPR-B activity)” value [7] is reported as greater than 5, the “IC50 of PEGylated CNP-38/IC50 CNP-38 (residual NPR-C affinity)” value [8] is reported as 0.53 and the “half life norm. [h]” value [6] is reported as “Almost no proteolysis”.

In the case of “Reversible Lys26 CNP-38 PEG4×10 kDa Conjugate [Conjugate 11i]”, the “MAP during the remaining ten time points versus vehicle” value [3] is reported as “no difference in MAP”, the “change in MAP at the 5, 15 and 30 min post dose time points compared to predose” value [3] is reported as “physiological increase in MAP” and the “MAP (mean ± SD)” value ([3]; 5 min post dose) is reported as 122.8 ± 5.9 mmHg. The “MAP (mean ± SD)” value ([3]; 15 min post dose) was 121.5 ± 7.5 mmHg, the “MAP (mean ± SD)” value ([3]; 30 min post dose) was 111.5 ± 13.7 mmHg and the “MAP (mean ± SD)” value ([3]; predose) was 106.4 ± 10.7 mmHg. The “effect on blood pressure (conclusion)” value ([3]; subcutaneous, dosage equivalent to CNP-38) was “did not decrease blood pressure”.
